Assay [1] deals with PGHS-2. The settings on record: cytokine-treated astrocytes; cited from earlier work.
Assay [2] relates to colon polyp. The settings on record: patients with familial polyposis; cited from earlier work.
Assay [3] concerns the target T1, griPGHS (Mus musculus, UniProt Q05769).
T1 sequence (Q05769 18-604): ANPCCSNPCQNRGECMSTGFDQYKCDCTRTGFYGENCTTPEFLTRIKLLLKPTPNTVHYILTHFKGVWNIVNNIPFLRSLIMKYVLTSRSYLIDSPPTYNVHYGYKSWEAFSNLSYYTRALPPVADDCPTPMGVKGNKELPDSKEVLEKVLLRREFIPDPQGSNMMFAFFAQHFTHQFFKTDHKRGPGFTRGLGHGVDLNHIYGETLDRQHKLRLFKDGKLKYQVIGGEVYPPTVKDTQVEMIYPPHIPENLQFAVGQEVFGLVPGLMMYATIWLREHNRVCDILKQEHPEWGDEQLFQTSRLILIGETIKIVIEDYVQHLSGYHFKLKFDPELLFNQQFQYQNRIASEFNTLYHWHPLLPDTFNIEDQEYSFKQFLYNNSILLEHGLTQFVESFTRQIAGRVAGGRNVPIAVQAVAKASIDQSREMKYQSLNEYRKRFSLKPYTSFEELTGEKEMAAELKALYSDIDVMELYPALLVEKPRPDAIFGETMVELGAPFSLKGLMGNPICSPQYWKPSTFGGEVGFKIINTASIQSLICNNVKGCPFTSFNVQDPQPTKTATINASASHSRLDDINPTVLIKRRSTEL
The settings on record: E9 cells. Here is the method: (§1) Cyclooxygenase activity was determined in the cultures by addition of media containing exogenous arachidonic acid substrate (30 AM for 15 min. at 37° C.) followed by conversion of the prostaglandin E2 product to a methyl oximate form. This derivative was then quantitated by radioimmunoassay (kit from Amersham Corp.).
Prostaglandin assays were carried out as described above. For drug studies, cells were exposed to various concentrations of drugs for 30 min in serum-free DMEM and arachidonic acid was added directly from a 25×stock in DMEM. Supernatants were harvested 15 min later. Controls consisted of no drugs and wells treated with maximal concentrations of drug vehicles (1% methanol or ethanol).
Cells were placed in serum-free medium with the drugs for 30 min prior to a 15 min exposure to arachidonic acid (added directly to the media). Synthesized PGE2 was then quantitated from the supernatants by a standard radio immunoassay.

Assay [4] concerns the target T2, human PGHS-2 (Homo sapiens, UniProt P35354).
T2 sequence (P35354 18-604): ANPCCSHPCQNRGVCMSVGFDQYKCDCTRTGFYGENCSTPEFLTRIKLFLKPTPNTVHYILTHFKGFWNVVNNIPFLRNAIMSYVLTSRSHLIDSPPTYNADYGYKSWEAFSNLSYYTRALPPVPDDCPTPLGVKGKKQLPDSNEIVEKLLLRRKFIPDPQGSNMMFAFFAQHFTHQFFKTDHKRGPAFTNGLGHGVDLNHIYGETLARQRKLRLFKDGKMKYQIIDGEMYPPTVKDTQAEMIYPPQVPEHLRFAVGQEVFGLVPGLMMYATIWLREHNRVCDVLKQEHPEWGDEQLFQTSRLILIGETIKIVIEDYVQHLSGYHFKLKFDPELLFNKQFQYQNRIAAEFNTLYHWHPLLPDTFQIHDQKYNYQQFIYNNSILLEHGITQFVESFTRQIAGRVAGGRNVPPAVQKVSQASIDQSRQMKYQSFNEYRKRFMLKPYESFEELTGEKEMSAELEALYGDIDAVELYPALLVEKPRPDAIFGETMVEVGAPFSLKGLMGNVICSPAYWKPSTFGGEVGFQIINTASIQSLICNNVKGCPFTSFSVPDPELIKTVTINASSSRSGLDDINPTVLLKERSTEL
The following applies: cell lines incl. H17A5 (PGHS-1) and 4B4 (PGHS-2), 30 min drug, 15 min arachidonic acid. Here is the method: PGHS-1 and PGHS-2 cell lines (including 4B4 and H17A5) were exposed to various concentrations of NSAID for 30 min in serum-free DMEM. Arachidonic acid was added directly from a 25×stock in DMEM and supernatants were harvested 15 min later. Controls consisted of no drug treatment and cells treated with the maximal concentrations of drug vehicles (1% methanol or ethanol). […] Cyclooxygenase activity was determined as described herein above.

Assay [5] has as its system colon tumor. The settings on record: several clinical trials; cited from earlier work.
The test system of assay [6] is 2.8-kb PGHS mRNA. The experiment in a line: Northern blot of 2.8-kb PGHS (PGHS-1) mRNA in human monocytes. The format is cell-based. The settings on record: IL-1β, dexamethasone or cycloheximide treatment. The protocol: (§2) Poly-A enriched RNAs (2.5 μg) from C127 cells were fractionated by formaldehyde-agarose gel electrophoresis and transferred to a membrane (Duralon, Stratagene). Hybridization was carried out as previously described by O'Banion et al., 1991, J. Virol., 65:3481-3488, using the 5′ 1.2 kb EcoRI fragment of the 4.1 kb cDNA labeled with ^32P by random priming as disclosed by Feinberg et al., 1983, Anal. Biochem., 132:6-13. The membrane was later rehybridized with a similarly labeled portion (1.6 kb 5′ end) of the 2.8 kb ovine PGHS cDNA (Oxford Biomedical Research, Inc.), and an end-labeled 40-mer complimentary to β-tubulin (Oncor). RNA molecular weight markers (Life Technologies) were visualized by ethidium bromide staining. A similar analysis was performed on total RNA (5 μg/lane) isolated from human monocytes by the guanidinium-acid-phenol extraction method of Chomczynski et al., 1987, Anal. Biochem., 162:156-159.
Adherent human monocytes isolated from healthy donors as described by Roberts et al., 1978, J. Immunol, 121:1052-1058, were suspended in M199 medium without serum at 1×10^6 cells/ml. one ml aliquots in 5 ml polypropylene tubes were incubated with loosened caps in 5% CO2 at 37° C. with occasional shaking. […]

The subject of assay [7] is griPGHS mRNA (4.8-kb mRNA). The experiment in a line: Northern blot of griPGHS (PGHS-2) mRNA in human monocytes. The format is cell-based. The following applies: for increased levels of griPGHS mRNA relative to control: IL-1β 10 half-maximal units. Here is the method: as §2
(§3) Adherent human monocytes isolated from healthy donors as described by Roberts et al., 1978, J. Immunol, 121:1052-1058, were suspended in M199 medium without serum at 1×10^6 cells/ml. one ml aliquots in 5 ml polypropylene tubes were incubated with loosened caps in 5% CO2 at 37° C. with occasional shaking. To derive the autoradiograph shown in FIG. 3A, monocytes were incubated for 4 hr in the presence or absence of dexamethasone (1 AM; Sigma) prior to total RNA isolation by the procedure of P. Chomczynski et al., cited above. Five μg RNA was subjected to Northern blot analysis as described by O'Banion et al., 1991, J. Biol. Chem., 34:23261-23267 with the indicated probes labeled by random priming (kit from Boehringer-Mannheim) to a specific activity >1×10^9 cpm/μg. To derive the autoradiograph shown in FIG. 3B, monocytes were treated with dexamethasone (1 μM), […] (10 half-maximal units, Collaborative Research), or both for the indicated times prior to RNA isolation. Cycloheximide (25 μM; Sigma) was added to one set of incubations 15 min prior to the addition of cytokine or hormone.

For assay [8], the system named is C127 mouse fibroblasts. Briefly: Inhibition of protein synthesis in C127 cell cultures. The format is cell-based. The settings on record: C127, 0.25 h, within 15 min. Here is the method: Exponentially growing, subconfluent (60-80%) cell monolayers (35-mm plates) were labeled in Dulbecco's modified Eagle's medium without methionine (Life Technologies) plus 200 μCi/ml Tran^35S-label (>1,000 Ci/mmol; ICN) for 15 or 30 min. In some cases, fresh fetal calf serum (10%) was present during the labeling period. Monolayers were rinsed twice with ice-cold Dulbecco's modified Eagle's medium (DMEM) with methionine prior to lysis in 200 μl of A8 buffer (9.5 M urea, 2% (w/v) Nonidet P-40, 2% (w/v) ampholines (LKB, 1.6% pH range 5-8, 04.% pH range 3.5-10), 5% (w/v) 2-mercaptoethanol). Incorporation of label into proteins was determined by trichloroacetic acid precipitation. Dexamethasone (Sigma) was freshly prepared in phosphate-buffered saline (PBS) (stock concentrations based on molar extinction coefficient of 1.5×10^4 liters/mol/cm at 250 nn) and added to 1 μM. The calcium ionophore A23187 (Calbiochem) was used at a concentration of 5 μM from a 2.5 mM stock in ethanol. Cycloheximide (Sigma) was used at a concentration of 25 μM from a 100× stock in water. This level inhibited protein synthesis by >97% within 15 min. Control cultures received appropriate amounts of solvents.

Assay [9] has as its system human monocytes. Briefly: Accumulated PGE2 in supernatant of human monocytes. The format is cell-based. The following applies: after 4 hr of incubation, dexamethasone 1 μM; without 122.5. The protocol:
as §1
as §3, with “Cycloheximide (25 μM; Sigma) was added to one set of incubations 15 min prior to the addition of cytokine or hormone.” left out

Assay [10] concerns lung disease of cystic fibrosis. The following applies: high-dose, cystic fibrosis patient population; cited from earlier work.

Usually inhibition stands for the relative decrease from the control value, in per cent.

As to `CS(=O)(=O)Nc1ccc([N+](=O)[O-])cc1OC1CCCCC1` [NS-398], the induced cyclooxygenase activity entry in assay [1] is recorded as “blocked”.
As to `CC1=C(CC(=O)O)c2cc(F)ccc2/C1=C\c1ccc([S+](C)[O-])cc1` (stereo not drawn) [Sulindac], the “effect on colon polyps” value in [2] was “colon polyp regression”.
For the molecule `CC(=O)Nc1ccc(O)cc1` [acetaminophen], the “potency against griPGHS activity (rank among four NSAIDs)” value in assay [3] (0.2 μM-2 mM, 30 min drug then 15 min arachidonic acid) is “the least”. Also, the “concentration not sufficient for full inhibition of griPGHS activity” value in assay [3] (highest dose tested) is more than 2 mM.
Consider `CC(=O)Oc1ccccc1C(=O)O` [aspirin], for which, in assay [4], the “levels of drug required for inhibition, cells expressing PGHS-1 versus PGHS-2” value is given as “different”. For the same molecule, the “association of use with colon tumor outcome” value in assay [5] is “decreased colon tumor growth and death”.
`C[C@@H]1C[C@@H]([C@H](O)CC2CC(=O)NC(=O)C2)C(=O)[C@@H](C)C1` [cycloheximide]: the “levels of the 2.8-kb mRNA relative to β-tubulin” value in [6] is “not significantly altered”. Further, the “effect on 4.8-kb griPGHS mRNA” value in assay [7] (cycloheximide 25 μM added 15 min before cytokine or hormone) is “superinduction”. Further, the inhibition at 25 µM in assay [8] is more than 97%.
Take `C[C@@H]1C[C@H]2[C@@H]3CCC4=CC(=O)C=C[C@]4(C)[C@@]3(F)[C@@H](O)C[C@]2(C)[C@@]1(O)C(=O)CO` [dexamethasone]: in [9], the “level of accumulated PGE2 in the supernatant” value was found to be 52.5 pg per 10^4 monocytes. The “griPGHS mRNA levels down-regulated, normalized to β-tubulin” value in [7] (dexamethasone 1 μM, 4 hr, human monocytes) is recorded as 5 fold.
On to `CC(C)Cc1ccc(C(C)C(=O)O)cc1` (stereo not drawn) [ibuprofen], for which, in assay [10], the “effect on lung disease” value was “slows the progression of lung disease”.
As to “IL-1β: proinflammatory cytokine, known mediator of inflammation (Collaborative Research)”, the “levels of the 2.8-kb mRNA relative to β-tubulin” value in assay [6] is recorded as “not significantly altered”. Moreover, the “increased levels of griPGHS mRNA relative to control” value in [7] (4 hr, human monocytes) stood at 2.5 fold; in assay [7] (12 hr, human monocytes), 14 fold.

The record behind these values is US20040014702A1, “Mammalian prostaglandin H synthase-2” (priority 1992, published 2004).
